Molecular target: T1, recombinant human pancreatic GLK (Homo sapiens, UniProt P35557)
T1 sequence (P35557 1-465): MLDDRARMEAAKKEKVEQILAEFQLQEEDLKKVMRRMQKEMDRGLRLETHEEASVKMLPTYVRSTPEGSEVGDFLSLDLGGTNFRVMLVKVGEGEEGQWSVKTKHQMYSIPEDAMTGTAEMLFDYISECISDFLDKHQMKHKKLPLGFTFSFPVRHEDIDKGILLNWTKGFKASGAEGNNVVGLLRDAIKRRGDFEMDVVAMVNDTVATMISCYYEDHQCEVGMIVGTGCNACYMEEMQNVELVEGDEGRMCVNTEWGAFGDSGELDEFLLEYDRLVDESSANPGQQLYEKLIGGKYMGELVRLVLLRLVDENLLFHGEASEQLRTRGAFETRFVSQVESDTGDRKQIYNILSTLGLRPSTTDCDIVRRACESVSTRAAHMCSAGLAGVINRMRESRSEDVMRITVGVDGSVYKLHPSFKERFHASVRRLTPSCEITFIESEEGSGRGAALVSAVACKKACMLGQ
Assay: biochemical

COC[C@H](C)Oc1cc(OCc2ccccc2)cc(-c2cc3cccnc3[nH]2)c1 [Example 1, 2-[3-(Benzyloxy)-5-[(1S)-2-methoxy-1-methylethoxy]phenyl]-1H-pyrrolo[2,3-b]pyridine]
EC50: 120 nM

Reference: patent US20090105263A1, “HETEROBICYCLIC COMPOUNDS AS GLUCOKINASE ACTIVATORS” (priority 2005, published 2009)
